# Reference: patent US10377763B2, “Morphinan derivative and medical usage thereof” (UNIVERSITY OF TSUKUBA, priority 2015, dated 2019)
# “And” between values parts separate entries of the source, which are not always exact repeats. Identical values can stand only once.
# Legend:
# human OX2R = human OX2R (Homo sapiens (Human), UniProt O43614); assay: Measurement of antagonistic activity against orexin receptors (intracellular calcium, CHOOX2R cells); format: cell-based
# Procedure: (§1) The Chinese hamster ovary (CHO) cell lines CHOOX1R and CHOOX2R were established by modifying CHO cells to constantly express the NFAT-luciferase gene and either the human OX1R or human OX2R gene. Those cells were plated at 10,000 cells/well in 96-well multiplates with DMEM (manufactured by Sigma-Aldrich Co. LLC) supplemented with 5% FBS (manufactured by Thermo Scientific Inc.) and incubated at 37° C. and 5% CO2 for 48 hours. After removal of the medium, 100 μL of an assay buffer (20 mM HEPES (manufactured by Sigma-Aldrich Co. LLC), Hank's balanced salt solution (manufactured by Gibco), 0.1% BSA (manufactured by Sigma-Aldrich Co. LLC), 2.5 mM probenecid acid (manufactured by Wako Pure Chemical Industries, Ltd.), pH 7.4) containing 5 μM Fura-2AM (manufactured by Cayman Chemical Co.) was added to each well, and incubated at 37° C. and 5% CO2 for 60 minutes. After removal of the buffer containing Fura-2AM, 75 μL of the assay buffer was added to each well. Then, […] of the assay buffer containing a test compound at various concentrations and OX-A (manufactured by Peptide Institute, Inc.) was added to start the reaction. The change in intracellular calcium ion concentration induced by the reaction was evaluated by the ratio of fluorescent intensities, which were measured at a wavelength of 510 nm based on the two wavelength excitation approach using FDSS 7000 (manufactured by Hamamatsu Photonics K.K.) with fluorescence excitation at 340 nm and 380 nm. A concentration-response curve on the antagonistic activity was plotted from the values of maximal fluorescent intensity ratio determined when various concentrations of a test compound were added in the presence of […] of OX-A, where a value of maximal fluorescent intensity ratio determined by adding 300 pM of OX-A alone corresponds to 100% and a value of maximal fluorescent intensity ratio determined by adding the assay buffer alone corresponds to 0%. Based on the resulting non-linear regression curve, the 50% maximal inhibitory concentration (IC50) was calculated. Each test compound was dissolved in DMSO to a concentration of 10 mM (the final concentration of DMSO was 1%), and then diluted with the assay buffer to give a final concentration of 3.0×10^−10 M to 1.0×10^−5 M (a common ratio of 3), while OX-A was diluted to a final concentration of 300 pM. The experiment was performed in quadruplicate plates, and the results of the four independent measurements were averaged to give the value of each reaction, and then the IC50 of a sample was calculated. If the sample number was 2 or more, the averaged IC50 was used.
# [1] = test system: male ICR mice with morphine physical dependence; assay: Evaluation of the therapeutic effect on drug dependence (naloxone-induced withdrawal syndrome in morphine-dependent mice); format: in vivo; conditions: 10 mg/kg i.p. 30 minutes prior to naloxone 3 mg/kg s.c., after repeated morphine
# Procedure: Increasing doses of morphine hydrochloride dissolved in saline were administered subcutaneously to 7-week-old male ICR mice twice daily (dosing interval: about 12 hours) for four days (dose: Day 1, 8 mg/kg followed by 15 mg/kg; Day 2, 20 mg/kg followed by 25 mg/kg; Day 3, 30 mg/kg followed by 35 mg/kg; Day 4, 40 mg/kg followed by 45 mg/kg). On Day 5, the mice were administered subcutaneously with morphine hydrochloride at 45 mg/kg as the final dose. Two hours after the final administration of morphine hydrochloride, the mice were administered subcutaneously with naloxone hydrochloride at 3 mg/kg. The mice were administered intraperitoneally with the compound of Example 45 (Compound 26) at 10 mg/kg or saline, the solvent of the compound, 30 minutes prior to the administration of naloxone hydrochloride. Symptoms of withdrawal syndrome (jumping, body shake, ptosis, forepaw tremor, rearing, body weight loss, and diarrhea) which appeared 60 minutes after the last dose of naloxone hydrochloride were observed. Body weight was measured before and every 15 minutes after naloxone hydrochloride administration. Moreover, diarrhea was graded according to a three-point scoring system based on the appearance of feces: normal feces, loose feces, and liquid feces or liquid diarrhea. The other symptoms of withdrawal syndrome were evaluated based on the presence or absence of their manifestation. Statistical analysis was performed using chi square test and two-way analysis of variance and setting the significance level at p<0.05.
# human OX1R = human OX1R (Homo sapiens (Human), UniProt O43613); assay: Measurement of antagonistic activity against orexin receptors (intracellular calcium, CHOOX1R cells); format: cell-based
# human OX1R, sequence (O43613 whole entry): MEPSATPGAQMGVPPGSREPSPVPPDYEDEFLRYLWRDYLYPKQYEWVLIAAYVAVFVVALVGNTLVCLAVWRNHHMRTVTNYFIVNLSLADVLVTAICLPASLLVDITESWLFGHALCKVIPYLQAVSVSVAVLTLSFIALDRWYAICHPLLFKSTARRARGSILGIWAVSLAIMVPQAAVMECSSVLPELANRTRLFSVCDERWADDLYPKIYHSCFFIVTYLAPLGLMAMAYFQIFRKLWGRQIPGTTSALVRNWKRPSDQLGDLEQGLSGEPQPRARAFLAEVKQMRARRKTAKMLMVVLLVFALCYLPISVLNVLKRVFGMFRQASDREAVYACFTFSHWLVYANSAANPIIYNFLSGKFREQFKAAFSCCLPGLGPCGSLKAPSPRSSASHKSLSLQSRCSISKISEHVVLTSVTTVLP
# Procedure: as §1
# [2] = test system: male ICR mice with morphine physical dependence; assay: Evaluation of the prophylactic effect on drug dependence (naloxone-induced withdrawal syndrome in morphine-dependent mice); format: in vivo; conditions: 10 mg/kg repeatedly with morphine Day 1-5, naloxone 3 mg/kg s.c.
# Procedure: Increasing doses of morphine hydrochloride dissolved in saline were administered subcutaneously to 7-week-old male ICR mice twice daily (dosing interval: about 12 hours) for four days (dose: Day 1, 8 mg/kg followed by 15 mg/kg; Day 2, 20 mg/kg followed by 25 mg/kg; Day 3, 30 mg/kg followed by 35 mg/kg; Day 4, 40 mg/kg followed by 45 mg/kg). On Day 1 to Day 4, the mice were administered intraperitoneally with the compound of Example 45 (Compound 26) at 10 mg/kg or saline, the solvent of the compound, 30 minutes prior to every first administration of morphine hydrochloride. On Day 5, the mice were administered subcutaneously with the compound of Example 45 (Compound 26) at 10 mg/kg or saline, and 30 minutes later administered subcutaneously with morphine hydrochloride at 45 mg/kg as the final dose. Two hours after the final administration of morphine hydrochloride, the mice were administered subcutaneously with naloxone hydrochloride at 3 mg/kg; symptoms of withdrawal syndrome (jumping, body shake, ptosis, forepaw tremor, rearing, body weight loss, and diarrhea) which appeared 60 minutes after administration of naloxone hydrochloride were observed. Body weight was measured before and every 15 minutes after naloxone hydrochloride administration. Moreover, diarrhea was graded according to a three-point scoring system based on the appearance of feces: normal feces (Normal), loose feces (Slightly), and liquid feces or liquid diarrhea (Severe). The other symptoms of withdrawal syndrome were evaluated based on the presence or absence of their manifestation. Statistical analysis was performed using chi square test and two-way analysis of variance and setting the significance level at p<0.05.
# human OX2R, sequence (O43614 whole entry): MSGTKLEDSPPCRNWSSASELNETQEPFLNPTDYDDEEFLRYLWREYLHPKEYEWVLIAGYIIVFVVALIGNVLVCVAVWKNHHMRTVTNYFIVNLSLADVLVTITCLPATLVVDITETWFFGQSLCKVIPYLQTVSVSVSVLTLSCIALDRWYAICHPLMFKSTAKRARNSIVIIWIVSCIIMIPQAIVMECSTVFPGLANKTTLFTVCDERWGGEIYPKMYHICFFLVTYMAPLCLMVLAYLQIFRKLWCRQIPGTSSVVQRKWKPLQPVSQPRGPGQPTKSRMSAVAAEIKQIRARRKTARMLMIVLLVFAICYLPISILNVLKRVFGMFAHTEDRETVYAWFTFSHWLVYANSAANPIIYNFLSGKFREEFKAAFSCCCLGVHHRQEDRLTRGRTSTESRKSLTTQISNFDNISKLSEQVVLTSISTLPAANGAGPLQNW
compound,measurement,setting,value
"COc1ccc2c3c1O[C@H]1[C@H](N(C)C(=O)/C=C/c4ccccn4)CC[C@@]4(O)[C@@H](C2)N(S(=O)(=O)c2ccccc2N(C)C)CC[C@]314 [Example 45, (E)-N-[(4R,4aS,7R,7aR,12bS)-3-{[2-(dimethylamino)phenyl]sulfonyl}-4a-hydroxy-9-methoxy-2,3,4,4a,5,6,7,7a-octahydro-1H-4,12-methanobenzofuro[3,2-e]isoquinolin-7-yl]-N-methyl-3-(pyridin-2-yl)acrylamide]",IC50,human OX2R,> 10000 nM
same,Body shake: number of animals with withdrawal syndrome/total number of animals,[1],7/13
same,Diarrhea score Liquid feces or liquid diarrhea (number of corresponding animals/total number of animals),[1],3/13
same,Diarrhea score Loose feces (number of corresponding animals/total number of animals),[1],8/13
same,Diarrhea score Normal feces (number of corresponding animals/total number of animals),[1],2/13
same,Forepaw tremor: number of animals with withdrawal syndrome/total number of animals,[1],11/13
same,Jumping: number of animals with withdrawal syndrome/total number of animals,[1],statistically significantly suppressed and 2/13**
same,Ptosis: number of animals with withdrawal syndrome/total number of animals,[1],tendency to suppress and 3/13
same,Rearing: number of animals with withdrawal syndrome/total number of animals,[1],11/13
same,"diarrhea (withdrawal syndrome, in words)",[1],statistically significantly suppressed
same,body weight loss (withdrawal syndrome),[1]; FIG. 2,statistically significantly suppressed
same,IC50,human OX1R,3.61 nM
same,antagonistic activity against human OX1 receptor (in words),human OX1R; summary of Table 6,potent and selective antagonistic activity
same,Body shake: number of animals with withdrawal syndrome/total number of animals,[2],6/8
same,Diarrhea score Liquid feces or liquid diarrhea (number of corresponding animals/total number of animals),[2],2/8
same,Diarrhea score Loose feces (number of corresponding animals/total number of animals),[2],4/8
same,Diarrhea score Normal feces (number of corresponding animals/total number of animals),[2],2/8
same,Forepaw tremor: number of animals with withdrawal syndrome/total number of animals,[2],6/8
same,Jumping: number of animals with withdrawal syndrome/total number of animals,[2],statistically significantly suppressed and 1/8*
same,Ptosis: number of animals with withdrawal syndrome/total number of animals,[2],tendency to suppress and 4/8
same,Rearing: number of animals with withdrawal syndrome/total number of animals,[2],tendency to suppress and 5/8
same,"diarrhea (withdrawal syndrome, in words)",[2],statistically significantly suppressed
same,body weight loss (withdrawal syndrome),[2]; FIG. 1,statistically significantly suppressed
